From US4880820A, “Guanine derivatives” (Merck & Co., Inc., priority 1988, dated 1989)
Values after ≈ are worked out from the molar mass of the structure shown.

Legend:
[1] = tested on: Herpes simplex virus Type 1 (Schooler); experiment: Method 2: virus plaque reduction in MRC-5 cells, HSV-1; type: cell-based; settings: Human alphaherpesvirus 1, MRC5, 72 h; HSV-1 (Schooler), MRC-5 cells, 3 days; 50% reduction of plaque development; read-out: ED50 (the source's name)
Description: Method 2: Confluent monolayers of MRC-5 cells were incubated for one hour at 37° C. with 50-100 plaque forming units of the indicated virus. Following incubation, the cell monolayers were refed with maintenance medium containing 2% methyl cellulose and the chemical agent indicated. Duplicate cultures were incubated with each concentration of the chemical agent tested. Following further incubation for 3 days at 37° C., the monolayers were stained and the developed virus plaques were counted. The concentration (μg/ml) of each chemical agent which reduced plaque development by 50% (ED50) was determined.

[2] = tested on: Herpes simplex virus Type 1 (Schooler); experiment: Method 1: inhibition of viral induced cytopathology in primary rabbit kidney cell cultures, HSV-1; type: cell-based; settings: Human alphaherpesvirus 1; HSV-1 (Schooler), primary rabbit kidney cells; total suppression of cytopathology in 50% of cultures; read-out: Minimum Effective Concentration
Description: (§1) Method 1: Confluent monolayers of primary rabbit kidney cell cultures were refed with maintenance medium containing serial dilutions of the test compounds and incubated overnight at 37° C. At each dilution, four cultures were challenged with approximately 10 TCID50 HSV-1, four cultures were challenged with approximately 10 TCID50 HSV-2,and two cultures were left as toxicity controls. Cultures were reincubated at 37° C. and observed for viral induced cytopathology at days 5 and 7. Minimum Effective Concentration (μg/ml) is defined as the concentration of antiviral compound required to totally suppress the development of viral cytopathology in 50% of the infected rabbit kidney cell cultures.

[3] = tested on: Herpes simplex virus Type 2 (Curtis); experiment: Method 1: inhibition of viral induced cytopathology in primary rabbit kidney cell cultures, HSV-2; type: cell-based; settings: Human alphaherpesvirus 2; HSV-2 (Curtis), primary rabbit kidney cells; total suppression of cytopathology in 50% of cultures; read-out: Minimum Effective Concentration
Description: as §1

[4] = tested on: Herpes simplex virus type 1 (HSV-1), strain Schooler; experiment: Oral treatment of intraperitoneal HSV-1 infection of mice (Example 16); type: in vivo, ICR/Ha mice
Description: (§2) Twenty gram ICR/Ha mice were injected intraperitoneally (i.p.) with 0.5 ml of a 10^-5 dilution of a stock preparation of Herpes simplex virus type 1 (HSV-1), strain Schooler. This virus challenge infected each animal with approximately 50 to 100 LD50 s. Starting immediately after virus infection and continuing twice daily for 7 days, each animal was treated by oral gavage in groups of 10 with: 250 μg, 125 μg, 8 μg or 2 μg of (S)-9-(2,3-dihydroxy-1-propoxymethyl)guanine; 500 μg, 125 μg, 31 μg, 8 μg or 2 μg of racemic 9-(2,3-dihydroxy-1-propoxymethyl)guanine; or placebo (physiological saline, pH 11.5). All compounds were solubilized in physiological saline, pH 11.5. The mice were observed daily for 15 days at the same time each day and the day of death was recorded for each animal.
(§3) The statistical analyses were carried out as described in Example 15.

[5] = tested on: Herpes simplex virus type 1 (HSV-1), strain Schooler; experiment: Parenteral (subcutaneous) treatment of Herpes simplex virus type 1 infection in mice; type: in vivo, ICR/Ha mice; settings: s.c.
Description: as §2, with “(ip)” for “(i.p.)”, “LD50.” for “LD50 s.”, “4” for “7”, “injected subcutaneously” for “treated by oral gavage”, “with:” for “with: 250 μg, 125 μg, 8 μg or 2 μg of (S)-9-(2,3-dihydroxy-1-propoxymethyl)guanine; 500 μg,”, “compounds A, B or C;” for “racemic 9-(2,3-dihydroxy-1-propoxymethyl)guanine;”
Statistical analyses [reference: Liddel, F.D.K., Evaluation of Survival in Challenge Experiments, Microbiol. Rev., 42, 237 (1978)]were performed on survival times transformed by the negative exponential transformation:
t=number of days an animal survived
T=duration of trial (15 days)
A continuity correction was used to account for daily observation:
Within each group, mice surviving through the trial period were assigned equally values of 0.9 and 1.0 to adjust for termination of the trial.
Average survival time per group was calculated from average corrected transformed survival times [fc (t)] as follows:
t avg=[T/log(0.1).[log(1-fc (t)]

[6] = tested on: Herpes simplex virus type 1 (HSV-1), strain Schooler; experiment: as above; type: in vivo, ICR/Ha mice; settings: tested not at the same time as A, B, C; for Percent Survival: at 15 days
[7] = tested on: Herpes simplex virus type 1 (HSV-1), strain Schooler; experiment: Oral treatment of intraperitoneal HSV-1 infection of mice (Example 17); type: in vivo, ICR/Ha mice; settings: for Percent Survival: at 15 days
Description: Twenty gram ICR/Ha mice were injected intraperitoneally (i.p.) with 0.5 ml of a 10^-5 dilution of a stock preparation of Herpes Simplex virus type 1 (HSV-1), strain Schooler. This virus challenge infected mice with approximately 50 to 100 LD50. Starting immediately after virus infection and continuing twice daily for 7 days, each animal was treated by oral gavage in groups of 10 with: 500 μg, 125 μg, 31 μg or 8 μg of (S)-9-(2,3-dihydroxy-1propoxymethyl)guanine; 500 μg, 125 μg, 31 μg or 8 μg of acyclovir or placebo (physiological saline, pH 11.5). All compounds were solubilized in physiological saline, pH 11.5.
as §3

[8] = 31 μg/dose twice daily for 7 days, 3.1 mg/kg/day, ^3 (all): not statistically different from placebo
[9] = 31 μg/dose twice daily for 7 days, 3.1 mg/kg/day, at 15 days (acyclovir not at the same time)
[10] = 125 μg/dose twice daily for 7 days, 12.5 mg/kg/day, ^3 (racemate, acyclovir): not statistically different from placebo
[11] = 125 μg/dose twice daily for 7 days, 12.5 mg/kg/day, at 15 days (acyclovir not at the same time)
[12] = 500 μg/dose twice daily for 7 days, 50 mg/kg/day (acyclovir not at the same time)
[13] = 500 μg/dose twice daily for 7 days, 50 mg/kg/day, at 15 days (acyclovir not at the same time)
[14] = 2 μg/dose twice daily for 4 days, 0.2 mg/kg/day, ^3 (all): not statistically different from placebo
[15] = 2 μg/dose twice daily for 4 days, 0.2 mg/kg/day, at 15 days
[16] = 8 μg/dose twice daily for 4 days, 0.8 mg/kg/day, ^3 (all): not statistically different from placebo
[17] = 8 μg/dose twice daily for 4 days, 0.8 mg/kg/day, at 15 days
[18] = 31 μg/dose twice daily for 4 days, 3.1 mg/kg/day, ^3 (all): not statistically different from placebo
[19] = 31 μg/dose twice daily for 4 days, 3.1 mg/kg/day, at 15 days
[20] = 125 μg/dose twice daily for 4 days, 12.5 mg/kg/day, ^3 (B, acyclovir): not statistically different from placebo
[21] = 125 μg/dose twice daily for 4 days, 12.5 mg/kg/day, at 15 days (acyclovir not at the same time)
[22] = 125 μg/dose twice daily for 7 days, 12.5 mg/kg/day
[23] = 500 μg/dose twice daily for 7 days, 50 mg/kg/day

| SMILES | EC50 [1] [µg/mL] | minimal effective concentration [2] [µg/mL] | minimal effective concentration [3] [µg/mL] | Avg. Survival Time [4, 8] [days] | Percent Survival [4, 9] [%] | Avg. Survival Time [4, 10] [days] | Percent Survival [4, 11] [%] | Avg. Survival Time [4, 12] [days] | Percent Survival [4, 13] [%] | Avg. Survival Time [5, 14] [days] | Percent Survival [5, 15] [%] | Avg. Survival Time [5, 16] [days] | Percent Survival [5, 17] [%] | Avg. Survival Time [5, 18] [days] | Percent Survival [5, 19] [%] | Avg. Survival Time [5, 20] [days] | Percent Survival [5, 21] [%] | further results |
| --- | --- | --- | --- | --- | --- | --- | --- | --- | --- | --- | --- | --- | --- | --- | --- | --- | --- | --- |
| Nc1nc2c(ncn2COCC(O)CO)c(=O)[nH]1 (racemic) [C, Racemic 9-(2,3-dihydroxy-1-propoxymethyl)guanine] | 1 (≈ 3.92 µM) | 3.1 to 6 | 6 to 12 | 7.6 | 0 | 8.4 | 10 | 10.7 | 20 | 6.7 | 10 | 6.6 | 0 | 7.2 | 0 | 8.6 | 20 | Avg. Survival Time ([4]; 2 μg/dose twice daily for 7 days, 0.2 mg/kg/day, ^3 (all): not statistically different from placebo): 6.9 days; Percent Survival ([4]; 2 μg/dose twice daily for 7 days, 0.2 mg/kg/day, at 15 days): 0%; Avg. Survival Time ([4]; 8 μg/dose twice daily for 7 days, 0.8 mg/kg/day, ^3 (all): not statistically different from placebo): 6.8 days; Percent Survival ([4]; 8 μg/dose twice daily for 7 days, 0.8 mg/kg/day, at 15 days): 0%; protection over placebo-treated animals, as measured by average survival time ([4]; 50 mg/kg/day): conferred significant protection over placebo-treated animals |
| Nc1nc2c(ncn2COCCO)c(=O)[nH]1 [Acyclovir, 9-(2-hydroxyethoxymethyl)guanine] |  |  |  | 6.3 | 0 | 6.6 | 0 | 8.2 | 20 |  |  |  |  |  |  | 7.0 | 6 | Percent Survival ([6]; 500 μg/dose, 50 mg/kg/day): 0%; Avg. Survival Time ([6]; 500 μg/dose, 50 mg/kg/day): 7.8 days; Percent Survival ([6]; 1000 μg/dose, 100 mg/kg/day): 10%; Avg. Survival Time ([6]; 1000 μg/dose, 100 mg/kg/day): 7.8 days; Percent Survival ([4]; 1000 μg/dose, 100 mg/kg/day, at 15 days, tested not at the same time): 60%; Avg. Survival Time ([4]; 1000 μg/dose, 100 mg/kg/day, tested not at the same time): 11.4 days; Avg. Survival Time ([7]; 8 μg/dose twice daily for 7 days, 0.8 mg/kg/day, ^b (all): not statistically different from placebo): 6.1 days; Percent Survival ([7]; 8 μg/dose twice daily for 7 days, 0.8 mg/kg/day): 0%; Avg. Survival Time ([7]; 31 μg/dose twice daily for 7 days, 3.1 mg/kg/day, ^b (all): not statistically different from placebo): 6.5 days; Percent Survival ([7]; 31 μg/dose twice daily for 7 days, 3.1 mg/kg/day): 0%; Avg. Survival Time [7, 22]: 7.6 days; Percent Survival [7, 22]: 10%; Avg. Survival Time [7, 23]: 8.7 days; Percent Survival [7, 23]: 20%; protection over placebo-treated animals, as measured by average survival time ([7]; 12.5 mg/kg/day): conferred significant protection over placebo-treated animals; protection over placebo-treated animals, as measured by average survival time ([7]; 50 mg/kg/day): conferred significant protection over placebo-treated animals |
| Nc1nc2c(ncn2COC[C@H](O)CO)c(=O)[nH]1 [B, (R)-9-(2,3-dihydroxy-1-propoxymethyl)guanine] | 6.2 (≈ 24.3 µM) | 25 | 25 to 50 |  |  |  |  |  |  | 6.0 | 0 | 6.3 | 0 | 6.5 | 10 | 7.5 | 10 |  |
